Data reported in ChEMBL document CHEMBL1201862, “PubChem BioAssay data set” (2004).
The source made the active and inactive calls. Cut-off read from the data, not from the text of the source: actives have a measured IC50 and inactives only a lower limit.

Target: Envelope glycoprotein gp160 (Human immunodeficiency virus 1, UniProt Q6QLK5)
Assay: cell-free HIV fusion peptide-binding blockers – biochemical, uHTS, fluorescence dequenching, […] (AID 1986)

Sequence of Envelope glycoprotein gp160 (Q6QLK5 whole entry, the tested form may be a part): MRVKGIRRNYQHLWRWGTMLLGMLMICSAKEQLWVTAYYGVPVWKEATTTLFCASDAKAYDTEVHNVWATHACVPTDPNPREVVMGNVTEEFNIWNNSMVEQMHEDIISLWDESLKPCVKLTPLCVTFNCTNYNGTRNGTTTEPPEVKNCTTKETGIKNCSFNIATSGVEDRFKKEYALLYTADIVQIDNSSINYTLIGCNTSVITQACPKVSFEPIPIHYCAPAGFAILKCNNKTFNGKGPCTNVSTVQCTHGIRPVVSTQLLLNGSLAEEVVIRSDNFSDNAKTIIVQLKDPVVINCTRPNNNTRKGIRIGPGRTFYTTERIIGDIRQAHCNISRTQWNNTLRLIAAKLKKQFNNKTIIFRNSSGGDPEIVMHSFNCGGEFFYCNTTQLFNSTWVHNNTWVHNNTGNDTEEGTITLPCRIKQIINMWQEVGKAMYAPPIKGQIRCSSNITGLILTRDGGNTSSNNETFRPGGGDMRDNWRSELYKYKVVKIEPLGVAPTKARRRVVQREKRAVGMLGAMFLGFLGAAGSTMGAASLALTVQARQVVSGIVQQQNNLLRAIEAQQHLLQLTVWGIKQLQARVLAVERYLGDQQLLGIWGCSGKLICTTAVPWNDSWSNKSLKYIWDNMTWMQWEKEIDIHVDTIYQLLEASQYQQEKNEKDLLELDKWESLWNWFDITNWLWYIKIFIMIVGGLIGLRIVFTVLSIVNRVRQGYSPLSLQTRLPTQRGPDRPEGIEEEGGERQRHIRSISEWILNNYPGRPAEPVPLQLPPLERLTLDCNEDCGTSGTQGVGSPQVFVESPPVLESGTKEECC

Row | Structure (SMILES) | IC50
1 | O=C(NN1C(=O)/C(=C/c2ccc(O)c([N+](=O)[O-])c2)SC1=S)c1ccccc1Cl | 28.2 µM (active)
2 | CC(C)(C)CC(C)(C)c1ccc(OCC(=O)N/N=C/c2ccc(S(=O)(=O)O)o2)cc1 | 27.8 µM (active)
